In the kinase profiling compilation of Christmann-Franck et al. (2016):

Assays:
Assay in all cases: KINOMEscan competition binding
Conditions in all cases: compound 10.0 µM
GRK4 (human) = GRK4 (human) (UniProt P32298)
TAOK2 (human) = TAOK2 (human) (UniProt Q9UL54)
MATK (human) = MATK (human) (UniProt P42679)
DYRK1A (human) = DYRK1A (human) (UniProt Q13627)
STK32A (human) = STK32A (human) (UniProt Q8WU08)
MAST1 (human) = MAST1 (human) (UniProt Q9Y2H9)
PKN3 (M.tuberculosis) = PKN3 (M.tuberculosis) (UniProt Q6P5Z2)
Sequence of PKN3 (M.tuberculosis) (Q6P5Z2 whole entry, looked up): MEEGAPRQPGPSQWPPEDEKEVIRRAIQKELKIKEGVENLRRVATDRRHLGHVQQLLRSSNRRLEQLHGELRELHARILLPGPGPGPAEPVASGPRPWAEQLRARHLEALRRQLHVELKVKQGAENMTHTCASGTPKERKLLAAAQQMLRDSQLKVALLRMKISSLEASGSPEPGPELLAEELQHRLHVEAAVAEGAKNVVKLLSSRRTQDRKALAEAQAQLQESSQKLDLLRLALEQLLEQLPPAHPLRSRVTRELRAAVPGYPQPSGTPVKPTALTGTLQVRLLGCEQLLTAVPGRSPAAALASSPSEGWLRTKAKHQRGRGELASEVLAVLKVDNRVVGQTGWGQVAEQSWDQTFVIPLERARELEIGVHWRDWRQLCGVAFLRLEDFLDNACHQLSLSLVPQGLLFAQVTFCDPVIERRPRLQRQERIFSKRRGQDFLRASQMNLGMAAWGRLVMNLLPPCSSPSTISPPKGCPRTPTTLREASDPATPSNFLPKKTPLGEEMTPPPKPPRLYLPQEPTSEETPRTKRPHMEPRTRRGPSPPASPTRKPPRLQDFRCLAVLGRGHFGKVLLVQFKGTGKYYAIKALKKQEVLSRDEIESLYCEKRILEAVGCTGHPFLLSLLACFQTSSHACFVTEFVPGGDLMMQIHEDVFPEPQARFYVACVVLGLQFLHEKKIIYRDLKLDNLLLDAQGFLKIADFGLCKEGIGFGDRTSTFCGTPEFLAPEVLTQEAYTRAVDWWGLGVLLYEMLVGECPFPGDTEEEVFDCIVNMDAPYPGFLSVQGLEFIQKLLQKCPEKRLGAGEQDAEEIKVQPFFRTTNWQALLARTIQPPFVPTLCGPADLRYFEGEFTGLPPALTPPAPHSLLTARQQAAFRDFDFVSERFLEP

ROCK1 (human) = ROCK1 (human) (UniProt Q13464)
EGFR (human) = EGFR (human) (UniProt P00533)
[1] = system: EGFR (human), P00533 [P753S; 747-752 del]
PIK3CG (human) = PIK3CG (human) (UniProt P48736)
Sequence of PIK3CG (human) (P48736 whole entry, looked up): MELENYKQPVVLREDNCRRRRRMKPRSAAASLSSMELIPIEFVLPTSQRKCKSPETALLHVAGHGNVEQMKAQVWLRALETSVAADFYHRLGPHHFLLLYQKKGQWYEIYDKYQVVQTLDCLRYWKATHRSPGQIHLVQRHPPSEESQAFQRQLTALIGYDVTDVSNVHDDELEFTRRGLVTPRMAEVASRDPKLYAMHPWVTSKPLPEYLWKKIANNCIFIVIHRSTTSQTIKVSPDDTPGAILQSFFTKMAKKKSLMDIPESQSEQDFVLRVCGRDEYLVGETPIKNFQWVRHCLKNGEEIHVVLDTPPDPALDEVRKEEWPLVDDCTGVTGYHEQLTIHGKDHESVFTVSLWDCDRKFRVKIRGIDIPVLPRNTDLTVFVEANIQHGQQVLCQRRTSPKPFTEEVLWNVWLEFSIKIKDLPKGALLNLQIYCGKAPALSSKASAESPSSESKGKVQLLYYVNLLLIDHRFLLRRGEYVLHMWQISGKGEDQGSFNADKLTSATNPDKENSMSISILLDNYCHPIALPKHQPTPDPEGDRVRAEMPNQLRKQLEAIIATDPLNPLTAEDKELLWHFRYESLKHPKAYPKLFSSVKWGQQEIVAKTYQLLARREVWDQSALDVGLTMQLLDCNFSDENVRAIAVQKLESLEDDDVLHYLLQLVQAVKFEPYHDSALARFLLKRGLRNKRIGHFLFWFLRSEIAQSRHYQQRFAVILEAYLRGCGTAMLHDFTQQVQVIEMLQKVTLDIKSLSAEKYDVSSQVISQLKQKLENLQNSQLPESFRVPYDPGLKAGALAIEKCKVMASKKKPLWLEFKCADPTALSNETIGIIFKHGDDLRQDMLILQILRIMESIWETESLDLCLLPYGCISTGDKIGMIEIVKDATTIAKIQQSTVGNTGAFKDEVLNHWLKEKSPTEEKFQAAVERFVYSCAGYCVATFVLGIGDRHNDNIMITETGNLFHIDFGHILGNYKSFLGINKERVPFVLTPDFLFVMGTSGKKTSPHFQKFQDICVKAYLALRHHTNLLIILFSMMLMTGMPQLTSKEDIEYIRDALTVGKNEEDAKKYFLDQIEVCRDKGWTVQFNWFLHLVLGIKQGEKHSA

NEK4 (human) = NEK4 (human) (UniProt P51957)
CRK2 (P.falciparum) = CRK2 (P.falciparum) (UniProt P61075)
[2] = system: ABL1 (human), P00519 [E255K]
HIPK4 (human) = HIPK4 (human) (UniProt Q8NE63)
MAP3K2 (human) = MAP3K2 (human) (UniProt Q9Y2U5)
Sequence of MAP3K2 (human) (Q9Y2U5 whole entry, looked up): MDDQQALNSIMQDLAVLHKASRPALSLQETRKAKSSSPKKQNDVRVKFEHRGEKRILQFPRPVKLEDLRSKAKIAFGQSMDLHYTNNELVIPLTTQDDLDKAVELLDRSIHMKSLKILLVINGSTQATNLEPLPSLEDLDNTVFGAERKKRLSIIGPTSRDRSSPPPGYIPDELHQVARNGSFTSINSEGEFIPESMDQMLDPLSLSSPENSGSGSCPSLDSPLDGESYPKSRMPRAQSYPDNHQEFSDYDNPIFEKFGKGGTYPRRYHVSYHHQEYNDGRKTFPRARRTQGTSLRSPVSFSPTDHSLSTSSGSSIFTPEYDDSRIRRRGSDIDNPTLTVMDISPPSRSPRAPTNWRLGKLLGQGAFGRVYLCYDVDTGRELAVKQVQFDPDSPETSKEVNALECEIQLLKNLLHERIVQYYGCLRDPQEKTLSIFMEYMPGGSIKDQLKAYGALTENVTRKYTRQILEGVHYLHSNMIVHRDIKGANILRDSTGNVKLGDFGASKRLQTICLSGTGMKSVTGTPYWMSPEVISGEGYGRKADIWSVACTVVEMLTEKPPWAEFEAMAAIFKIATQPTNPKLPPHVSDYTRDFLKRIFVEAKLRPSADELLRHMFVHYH

NEK3 (human) = NEK3 (human) (UniProt P51956)
YSK4 (human) = YSK4 (human) (UniProt Q56UN5)
STK38 (human) = STK38 (human) (UniProt Q15208)
Sequence of STK38 (human) (Q15208 whole entry, looked up): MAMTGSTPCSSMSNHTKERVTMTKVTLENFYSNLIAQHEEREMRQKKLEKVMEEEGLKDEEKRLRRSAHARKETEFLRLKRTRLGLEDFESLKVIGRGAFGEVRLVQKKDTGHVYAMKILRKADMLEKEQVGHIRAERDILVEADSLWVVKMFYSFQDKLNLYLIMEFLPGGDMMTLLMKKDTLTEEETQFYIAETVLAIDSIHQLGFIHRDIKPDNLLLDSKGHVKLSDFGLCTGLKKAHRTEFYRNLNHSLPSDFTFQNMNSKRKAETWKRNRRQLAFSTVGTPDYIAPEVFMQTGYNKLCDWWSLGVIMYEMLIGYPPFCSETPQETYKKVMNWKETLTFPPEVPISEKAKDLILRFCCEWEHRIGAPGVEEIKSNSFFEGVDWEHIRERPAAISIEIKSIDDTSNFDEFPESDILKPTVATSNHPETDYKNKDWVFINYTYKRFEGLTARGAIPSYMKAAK

OXSR1 (human) = OXSR1 (human) (UniProt O95747)
MAP3K13 (human) = MAP3K13 (human) (UniProt O43283)
LRRK2 (human) = LRRK2 (human) (UniProt Q5S007)
STK39 (human) = STK39 (human) (UniProt Q9UEW8)
PIK3C2G (human) = PIK3C2G (human) (UniProt O75747)
IRAK1 (human) = IRAK1 (human) (UniProt P51617)
TRPM6 (human) = TRPM6 (human) (UniProt Q9BX84)
NEK11 (human) = NEK11 (human) (UniProt Q8NG66)
ICK (human) = ICK (human) (UniProt Q9UPZ9)
KIT (human) = KIT (human) (UniProt P10721)
DYRK2 (human) = DYRK2 (human) (UniProt Q92630)
ERBB3 (human) = ERBB3 (human) (UniProt P21860)
Sequence of ERBB3 (human) (P21860 whole entry, looked up): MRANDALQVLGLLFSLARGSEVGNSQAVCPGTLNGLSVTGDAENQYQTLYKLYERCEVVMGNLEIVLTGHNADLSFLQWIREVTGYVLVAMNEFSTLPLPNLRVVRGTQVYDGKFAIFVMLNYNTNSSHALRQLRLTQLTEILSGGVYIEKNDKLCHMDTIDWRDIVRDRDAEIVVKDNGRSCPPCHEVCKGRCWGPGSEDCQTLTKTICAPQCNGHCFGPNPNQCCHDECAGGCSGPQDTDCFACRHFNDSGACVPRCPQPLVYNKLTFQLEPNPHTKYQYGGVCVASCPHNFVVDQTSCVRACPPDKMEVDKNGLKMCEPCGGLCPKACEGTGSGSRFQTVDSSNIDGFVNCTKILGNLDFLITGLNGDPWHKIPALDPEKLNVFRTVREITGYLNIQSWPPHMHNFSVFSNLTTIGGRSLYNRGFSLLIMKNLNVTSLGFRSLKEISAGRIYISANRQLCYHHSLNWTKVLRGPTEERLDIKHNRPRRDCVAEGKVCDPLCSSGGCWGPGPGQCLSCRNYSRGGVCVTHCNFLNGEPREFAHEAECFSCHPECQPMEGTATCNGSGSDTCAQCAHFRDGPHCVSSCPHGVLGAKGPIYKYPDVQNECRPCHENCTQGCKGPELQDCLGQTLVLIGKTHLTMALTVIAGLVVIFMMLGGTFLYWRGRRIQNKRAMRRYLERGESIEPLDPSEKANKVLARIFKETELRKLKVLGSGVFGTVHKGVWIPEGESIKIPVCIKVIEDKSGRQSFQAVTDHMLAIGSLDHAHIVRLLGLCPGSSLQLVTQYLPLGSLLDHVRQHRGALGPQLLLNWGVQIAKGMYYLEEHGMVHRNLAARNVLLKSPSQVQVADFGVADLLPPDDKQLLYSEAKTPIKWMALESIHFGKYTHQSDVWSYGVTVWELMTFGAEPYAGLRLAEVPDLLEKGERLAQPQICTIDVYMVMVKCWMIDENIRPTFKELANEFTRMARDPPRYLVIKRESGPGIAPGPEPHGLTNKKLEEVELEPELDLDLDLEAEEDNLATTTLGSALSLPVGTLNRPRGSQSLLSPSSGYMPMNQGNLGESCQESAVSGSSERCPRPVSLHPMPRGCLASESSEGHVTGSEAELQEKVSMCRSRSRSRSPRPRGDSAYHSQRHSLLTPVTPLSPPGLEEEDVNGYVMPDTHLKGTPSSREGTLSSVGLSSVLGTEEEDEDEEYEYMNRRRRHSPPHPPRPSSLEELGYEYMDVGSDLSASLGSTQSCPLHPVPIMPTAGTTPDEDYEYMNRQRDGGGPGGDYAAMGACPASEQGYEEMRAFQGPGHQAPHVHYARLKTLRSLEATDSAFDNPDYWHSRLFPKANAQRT

HIPK3 (human) = HIPK3 (human) (UniProt Q9H422)
[3] = system: FLT3 (human), P36888 [K663Q]
GRK1 (human) = GRK1 (human) (UniProt Q15835)
EIF2AK1 (human) = EIF2AK1 (human) (UniProt Q9BQI3)
CSNK1A1 (human) = CSNK1A1 (human) (UniProt P48729)
MAK (human) = MAK (human) (UniProt P20794)
Sequence of MAK (human) (P20794 whole entry, looked up): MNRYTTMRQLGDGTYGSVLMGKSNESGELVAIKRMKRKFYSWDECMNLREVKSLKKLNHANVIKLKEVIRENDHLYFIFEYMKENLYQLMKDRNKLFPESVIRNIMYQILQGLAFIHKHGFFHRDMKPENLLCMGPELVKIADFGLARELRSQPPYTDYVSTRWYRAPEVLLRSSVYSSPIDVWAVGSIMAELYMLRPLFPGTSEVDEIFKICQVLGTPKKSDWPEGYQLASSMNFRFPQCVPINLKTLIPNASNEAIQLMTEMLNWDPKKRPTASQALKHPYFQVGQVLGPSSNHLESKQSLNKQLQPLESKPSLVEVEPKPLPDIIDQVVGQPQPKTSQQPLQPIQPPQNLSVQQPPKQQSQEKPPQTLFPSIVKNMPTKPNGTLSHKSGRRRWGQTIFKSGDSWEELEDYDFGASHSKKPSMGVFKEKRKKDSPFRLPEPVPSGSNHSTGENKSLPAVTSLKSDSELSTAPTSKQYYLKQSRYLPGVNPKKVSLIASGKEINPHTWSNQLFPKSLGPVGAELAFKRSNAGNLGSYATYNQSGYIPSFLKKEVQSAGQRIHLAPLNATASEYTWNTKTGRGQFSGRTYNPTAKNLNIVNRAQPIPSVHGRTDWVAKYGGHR

MAP2K7 (human) = MAP2K7 (human) (UniProt O14733)
CDK4 CCND3 (human) = CDK4 CCND3 (human) (UniProt P11802+P30281)
CDK4 CCND1 (human) = CDK4 CCND1 (human) (UniProt P11802+P24385)

SMILES: COc1cc(N2CCN(C)CC2)ccc1Nc1nc(N)c(C(=O)c2c(Cl)cccc2Cl)s1
- kinase still bound, per cent of control (GRK4 (human)): 85%
- kinase still bound, per cent of control (TAOK2 (human)): 8.2%
- kinase still bound, per cent of control (MATK (human)): 61%
- kinase still bound, per cent of control (DYRK1A (human)): 72%
- kinase still bound, per cent of control (STK32A (human)): 88%
- kinase still bound, per cent of control (MAST1 (human)): 24%
- kinase still bound, per cent of control (PKN3 (M.tuberculosis)): 80%
- kinase still bound, per cent of control (ROCK1 (human)): 79%
- kinase still bound, per cent of control (EGFR (human)): 100%
- kinase still bound, per cent of control [1]: 89%
- kinase still bound, per cent of control (PIK3CG (human)): 86%
- kinase still bound, per cent of control (NEK4 (human)): 96%
- kinase still bound, per cent of control (CRK2 (P.falciparum)): 87%
- kinase still bound, per cent of control [2]: 90%
- kinase still bound, per cent of control (HIPK4 (human)): 24%
- kinase still bound, per cent of control (MAP3K2 (human)): 79%
- kinase still bound, per cent of control (NEK3 (human)): 89%
- kinase still bound, per cent of control (YSK4 (human)): 98%
- kinase still bound, per cent of control (STK38 (human)): 100%
- kinase still bound, per cent of control (OXSR1 (human)): 100%
- kinase still bound, per cent of control (MAP3K13 (human)): 100%
- kinase still bound, per cent of control (LRRK2 (human)): 81%
- kinase still bound, per cent of control (STK39 (human)): 66%
- kinase still bound, per cent of control (PIK3C2G (human)): 100%
- kinase still bound, per cent of control (IRAK1 (human)): 92%
- kinase still bound, per cent of control (TRPM6 (human)): 5.2%
- kinase still bound, per cent of control (NEK11 (human)): 65%
- kinase still bound, per cent of control (ICK (human)): 7.4%
- kinase still bound, per cent of control (KIT (human)): 100%
- kinase still bound, per cent of control (DYRK2 (human)): 89%
- kinase still bound, per cent of control (ERBB3 (human)): 50%
- kinase still bound, per cent of control (HIPK3 (human)): 99%
- kinase still bound, per cent of control [3]: 100%
- kinase still bound, per cent of control (GRK1 (human)): 100%
- kinase still bound, per cent of control (EIF2AK1 (human)): 100%
- kinase still bound, per cent of control (CSNK1A1 (human)): 84%
- kinase still bound, per cent of control (MAK (human)): 26%
- kinase still bound, per cent of control (MAP2K7 (human)): 100%

SMILES: CCC(=O)N1CCN(c2ccc(-n3c(=O)ccc4cnc5ccc(-c6cnc7ccccc7c6)cc5c43)cc2C(F)(F)F)CC1
- kinase still bound, per cent of control (GRK4 (human)): 90%
- kinase still bound, per cent of control (TAOK2 (human)): 84%
- kinase still bound, per cent of control (MATK (human)): 97%
- kinase still bound, per cent of control (DYRK1A (human)): 71%
- kinase still bound, per cent of control (STK32A (human)): 100%
- kinase still bound, per cent of control (MAST1 (human)): 93%
- kinase still bound, per cent of control (PKN3 (M.tuberculosis)): 64%
- kinase still bound, per cent of control (ROCK1 (human)): 53%
- kinase still bound, per cent of control (EGFR (human)): 85%
- kinase still bound, per cent of control (NEK4 (human)): 86%
- kinase still bound, per cent of control (CRK2 (P.falciparum)): 97%
- kinase still bound, per cent of control (HIPK4 (human)): 4.6%
- kinase still bound, per cent of control (MAP3K2 (human)): 62%
- kinase still bound, per cent of control (NEK3 (human)): 100%
- kinase still bound, per cent of control (YSK4 (human)): 38%
- kinase still bound, per cent of control (STK38 (human)): 100%
- kinase still bound, per cent of control (OXSR1 (human)): 100%
- kinase still bound, per cent of control (MAP3K13 (human)): 100%
- kinase still bound, per cent of control (LRRK2 (human)): 81%
- kinase still bound, per cent of control (STK39 (human)): 100%
- kinase still bound, per cent of control (PIK3C2G (human)): 11%
- kinase still bound, per cent of control (IRAK1 (human)): 100%
- kinase still bound, per cent of control (TRPM6 (human)): 100%
- kinase still bound, per cent of control (NEK11 (human)): 65%
- kinase still bound, per cent of control (ICK (human)): 100%
- kinase still bound, per cent of control (DYRK2 (human)): 86%
- kinase still bound, per cent of control (ERBB3 (human)): 44%
- kinase still bound, per cent of control (CDK4 CCND3 (human)): 87%
- kinase still bound, per cent of control (HIPK3 (human)): 86%
- kinase still bound, per cent of control [3]: 23%
- kinase still bound, per cent of control (GRK1 (human)): 99%
- kinase still bound, per cent of control (CDK4 CCND1 (human)): 100%
- kinase still bound, per cent of control (EIF2AK1 (human)): 57%
- kinase still bound, per cent of control (MAK (human)): 68%
- kinase still bound, per cent of control (MAP2K7 (human)): 100%

SMILES: Cc1ccc2nc(NCCN)c3ncc(C)n3c2c1
- kinase still bound, per cent of control (GRK4 (human)): 100%
- kinase still bound, per cent of control (TAOK2 (human)): 70%
- kinase still bound, per cent of control (MATK (human)): 100%
- kinase still bound, per cent of control (DYRK1A (human)): 39%
- kinase still bound, per cent of control (STK32A (human)): 100%
- kinase still bound, per cent of control (MAST1 (human)): 100%
- kinase still bound, per cent of control (PKN3 (M.tuberculosis)): 0%
- kinase still bound, per cent of control (ROCK1 (human)): 100%
- kinase still bound, per cent of control (EGFR (human)): 100%
- kinase still bound, per cent of control [1]: 100%
- kinase still bound, per cent of control (PIK3CG (human)): 100%
- kinase still bound, per cent of control (NEK4 (human)): 100%
- kinase still bound, per cent of control (CRK2 (P.falciparum)): 100%
- kinase still bound, per cent of control [2]: 87%
- kinase still bound, per cent of control (HIPK4 (human)): 41%
- kinase still bound, per cent of control (MAP3K2 (human)): 100%
- kinase still bound, per cent of control (NEK3 (human)): 100%
- kinase still bound, per cent of control (YSK4 (human)): 16%
- kinase still bound, per cent of control (OXSR1 (human)): 100%
- kinase still bound, per cent of control (MAP3K13 (human)): 74%
- kinase still bound, per cent of control (LRRK2 (human)): 97%
- kinase still bound, per cent of control (STK39 (human)): 100%
- kinase still bound, per cent of control (PIK3C2G (human)): 23%
- kinase still bound, per cent of control (IRAK1 (human)): 78%
- kinase still bound, per cent of control (TRPM6 (human)): 87%
- kinase still bound, per cent of control (NEK11 (human)): 100%
- kinase still bound, per cent of control (ICK (human)): 100%
- kinase still bound, per cent of control (KIT (human)): 37%
- kinase still bound, per cent of control (DYRK2 (human)): 8.8%
- kinase still bound, per cent of control (ERBB3 (human)): 83%
- kinase still bound, per cent of control (CDK4 CCND3 (human)): 75%
- kinase still bound, per cent of control (HIPK3 (human)): 32%
- kinase still bound, per cent of control [3]: 92%
- kinase still bound, per cent of control (GRK1 (human)): 100%
- kinase still bound, per cent of control (CDK4 CCND1 (human)): 58%
- kinase still bound, per cent of control (EIF2AK1 (human)): 87%
- kinase still bound, per cent of control (CSNK1A1 (human)): 68%
- kinase still bound, per cent of control (MAK (human)): 100%
- kinase still bound, per cent of control (MAP2K7 (human)): 100%

SMILES: CCCS(=O)(=O)Nc1ccc(F)c(C(=O)c2c[nH]c3ncc(-c4ccc(Cl)cc4)cc23)c1F
- kinase still bound, per cent of control (GRK4 (human)): 100%
- kinase still bound, per cent of control (TAOK2 (human)): 53%
- kinase still bound, per cent of control (MATK (human)): 100%
- kinase still bound, per cent of control (DYRK1A (human)): 100%
- kinase still bound, per cent of control (STK32A (human)): 100%
- kinase still bound, per cent of control (MAST1 (human)): 100%
- kinase still bound, per cent of control (PKN3 (M.tuberculosis)): 78%
- kinase still bound, per cent of control (ROCK1 (human)): 85%
- kinase still bound, per cent of control (EGFR (human)): 70%
- kinase still bound, per cent of control [1]: 78%
- kinase still bound, per cent of control (PIK3CG (human)): 19%
- kinase still bound, per cent of control (NEK4 (human)): 95%
- kinase still bound, per cent of control (CRK2 (P.falciparum)): 97%
- kinase still bound, per cent of control (MAP3K2 (human)): 100%
- kinase still bound, per cent of control (YSK4 (human)): 53%
- kinase still bound, per cent of control (STK38 (human)): 100%
- kinase still bound, per cent of control (OXSR1 (human)): 95%
- kinase still bound, per cent of control (MAP3K13 (human)): 100%
- kinase still bound, per cent of control (LRRK2 (human)): 59%
- kinase still bound, per cent of control (STK39 (human)): 100%
- kinase still bound, per cent of control (PIK3C2G (human)): 62%
- kinase still bound, per cent of control (IRAK1 (human)): 99%
- kinase still bound, per cent of control (TRPM6 (human)): 100%
- kinase still bound, per cent of control (ICK (human)): 73%
- kinase still bound, per cent of control (KIT (human)): 0.15%
- kinase still bound, per cent of control (DYRK2 (human)): 100%
- kinase still bound, per cent of control (ERBB3 (human)): 73%
- kinase still bound, per cent of control (CDK4 CCND3 (human)): 82%
- kinase still bound, per cent of control (HIPK3 (human)): 100%
- kinase still bound, per cent of control (GRK1 (human)): 100%
- kinase still bound, per cent of control (CDK4 CCND1 (human)): 52%
- kinase still bound, per cent of control (EIF2AK1 (human)): 60%
- kinase still bound, per cent of control (CSNK1A1 (human)): 90%
- kinase still bound, per cent of control (MAK (human)): 100%
